Test results as given in the supplement of paper PMC13380429.

Key:
Settings in all cases: 72 h
Caco-2 [1] = assay: cell viability relative to DMSO; higher = less toxic
Calu-3 [2] = assay: as above
HepG2 [3] = assay: as above
U2OS [4] = assay: as above
Vero E6 [5] = assay: as above
Caco-2 [6] = assay: relative viability EC50 (midpoint between 100% and the lowest measured viability); higher = less toxic
Calu-3 [7] = assay: as above
HepG2 [8] = assay: as above
U2OS [9] = assay: as above
Vero E6 [10] = assay: as above
Caco-2 [11] = assay: drug sensitivity score (DSS) for viability; higher = more toxic; extreme values may be limits of the assay
Calu-3 [12] = assay: as above
HepG2 [13] = assay: as above
U2OS [14] = assay: as above
Vero E6 [15] = assay: as above

| Structure (SMILES) | cell viability (Caco-2 [1]; 1 nM) [%] | cell viability (Caco-2 [1]; 10 nM) [%] | cell viability (Caco-2 [1]; 100 nM) [%] | cell viability (Caco-2 [1]; 1000 nM) [%] | cell viability (Caco-2 [1]; 10000 nM) [%] | cell viability (Calu-3 [2]; 1 nM) [%] | cell viability (Calu-3 [2]; 10 nM) [%] | cell viability (Calu-3 [2]; 100 nM) [%] | cell viability (Calu-3 [2]; 1000 nM) [%] | cell viability (Calu-3 [2]; 10000 nM) [%] | cell viability (HepG2 [3]; 1 nM) [%] | cell viability (HepG2 [3]; 10 nM) [%] | cell viability (HepG2 [3]; 100 nM) [%] | cell viability (HepG2 [3]; 1000 nM) [%] | cell viability (HepG2 [3]; 10000 nM) [%] | cell viability (U2OS [4]; 1 nM) [%] | cell viability (U2OS [4]; 10 nM) [%] | cell viability (U2OS [4]; 100 nM) [%] | cell viability (U2OS [4]; 1000 nM) [%] | cell viability (U2OS [4]; 10000 nM) [%] | cell viability (Vero E6 [5]; 1 nM) [%] | cell viability (Vero E6 [5]; 10 nM) [%] | cell viability (Vero E6 [5]; 100 nM) [%] | cell viability (Vero E6 [5]; 1000 nM) [%] | cell viability (Vero E6 [5]; 10000 nM) [%] | relative viability EC50 (Caco-2 [6]) [µM] | relative viability EC50 (Calu-3 [7]) [µM] | relative viability EC50 (HepG2 [8]) [µM] | relative viability EC50 (U2OS [9]) [µM] | relative viability EC50 (Vero E6 [10]) [µM] | drug sensitivity score (Caco-2 [11]) | drug sensitivity score (Calu-3 [12]) | drug sensitivity score (HepG2 [13]) | drug sensitivity score (U2OS [14]) | drug sensitivity score (Vero E6 [15]) |
| --- | --- | --- | --- | --- | --- | --- | --- | --- | --- | --- | --- | --- | --- | --- | --- | --- | --- | --- | --- | --- | --- | --- | --- | --- | --- | --- | --- | --- | --- | --- | --- | --- | --- | --- | --- |
| CN(C)c1ccc(C(=O)NCCCCCCC(=O)NO)cc1 [M-344] | 101 | 99.4 | 103 | 75.6 | 1.5 | 101 | 93.7 | 77.2 | 55.3 | 13.6 | 106 | 92.8 | 80.2 | 37.9 | 0.3 | 99.2 | 94.6 | 93.9 | 47.2 | 1.1 | 97.5 | 101 | 92.1 | 56 | 0 | 1.56 | 0.581 | 0.504 | 0.891 | 1.14 | 9.2 | 11.8 | 14.4 | 11.7 | 10.6 |
| Cc1cccc(C#Cc2ccccc2)n1 [MPEP] | 98.7 | 94.5 | 98.1 | 102 | 95 | 91.5 | 95.5 | 88.2 | 89.6 | 91.1 | 98.8 | 94.6 | 101 | 101 | 103 | 103 | 100 | 98.6 | 103 | 94 | 98.1 | 94.9 | 96.6 | 97.1 | 95 | > 10 | > 10 | > 10 | > 10 | > 10 | 0 | 0.1 | 0 | 0 | 0 |
| CC(=O)NCCc1c[nH]c2ccccc12 [N-acetyltryptamine] | 93.5 | 94.7 | 99.4 | 96.5 | 102 | 92.8 | 96 | 94.3 | 105 | 99.4 | 105 | 95.7 | 97.1 | 103 | 104 | 95.4 | 102 | 94.5 | 99.3 | 101 | 97 | 92.4 | 99 | 91.4 | 107 | > 10 | > 10 | > 10 | > 10 | > 10 | 0 | 0 | 0 | 0 | 0 |
